Broadly, the MIC is the least concentration at which growth counts as inhibited.

Assay type in all cases: functional
The subject of one assay is Enterococcus faecium. Description: Antibacterial activity against vancomycin-resistant Enterococcus faecium by CLSI-based broth dilution method. To be noted: time 24 hrs. (Dilution methods test growth across graded concentrations, often in twofold steps.)
The subject of assay [1] is Staphylococcus aureus. Nature of the assay: Antibacterial activity against methicillin-resistant Staphylococcus aureus ATCC 25923 by CLSI-based broth dilution method.
For assay [2], the system named is Klebsiella pneumoniae. Nature of the assay: Antibacterial activity against Klebsiella pneumoniae ATCC 27736 by CLSI-based broth dilution method.
Assay [3] has as its system Staphylococcus aureus. Nature of the assay: Antibacterial activity against methicillin-sensitive Staphylococcus aureus by CLSI-based broth dilution method.
The subject of assay [4] is Pseudomonas aeruginosa. Description: Antibacterial activity against Pseudomonas aeruginosa ATCC 27853 by CLSI-based broth dilution method.
Assay [5] has as its system Escherichia coli. Description: Antibacterial activity against ESBL-producing Escherichia coli ATCC 25925 by CLSI-based broth dilution method.
Another assay deals with Talaromyces marneffei. Nature of the assay: Antifungal activity against Penicillium marneffei incubated for 3 to 4 days by serial plate dilution method. The conditions noted are these: time day 3-4.
Assay [6] concerns Trichophyton mentagrophytes. Nature of the assay: Antifungal activity against Trichophyton mentagrophytes incubated for 3 to 4 days by serial plate dilution method. The conditions noted are these: time day 3-4.
The subject of assay [7] is Pseudomonas aeruginosa. Description: Antibacterial activity against Pseudomonas aeruginosa ATCC 27853 incubated for 16 to 18 hrs by serial plate dilution method. The conditions noted are these: time hrs 16-18.
The test system of another assay is Aspergillus flavus. Nature of the assay: Antifungal activity against Aspergillus flavus NCIM 524 incubated for 3 to 4 days by serial plate dilution method. To be noted: time day 3-4.
Another assay relates to Aspergillus fumigatus. Description: Antifungal activity against Aspergillus fumigatus NCIM 902 incubated for 3 to 4 days by serial plate dilution method. To be noted: time day 3-4.
For assay [8], the system named is Klebsiella pneumoniae. Description: Antibacterial activity against Klebsiella pneumoniae incubated for 16 to 18 hrs by serial plate dilution method. The conditions noted are these: time hrs 16-18.
The subject of assay [9] is Escherichia coli. Description: Antibacterial activity against Escherichia coli ATCC 25922 incubated for 16 to 18 hrs by serial plate dilution method. To be noted: time hrs 16-18.
Assay [10] relates to Staphylococcus aureus. Description: Antibacterial activity against methicillin-resistant Staphylococcus aureus ATCC 25923 incubated for 16 to 18 hrs by serial plate dilution method. The conditions noted are these: time hrs 16-18.
In assay [11] the test system is Staphylococcus aureus. Description: Antibacterial activity against Staphylococcus aureus MTCC 96 incubated for 24 hrs by macrodilution tube method.
Assay [12] concerns Bacillus cereus. Description: Antibacterial activity against Bacillus cereus MTCC 430 incubated for 24 hrs by macrodilution tube method.
For another assay, the system named is Pseudomonas fluorescens. Description: Antibacterial activity against Pseudomonas fluorescens NCIM 2173 incubated for 24 hrs.
In assay [13] the test system is Sphingomonas paucimobilis. Description: Antibacterial activity against Flavobacterium devorans ATCC 10829 incubated for 24 hrs.
Assay [14] relates to Staphylococcus aureus. Nature of the assay: Antibacterial activity against Staphylococcus aureus ATCC 29737 incubated for 24 hrs.
Assay [15] relates to Escherichia coli. Description: Antibacterial activity against Escherichia coli NCIM 2256 incubated for 24 hrs.
A further assay relates to Micrococcus luteus. Nature of the assay: Antibacterial activity against Micrococcus Luteus ATCC 398 incubated for 24 hrs.
The subject of assay [16] is Bacillus cereus. Nature of the assay: Antibacterial activity against Bacillus cereus ATCC 6630 incubated for 24 hrs.

In brackets after ≈: the same amount, converted by molar mass.

`COc1ccc(-n2cc(COc3ccc(-c4nc5cc(C6=NCCN6)ccc5[nH]4)cc3)nn2)cc1`: the MIC in the assay with Enterococcus faecium, in the assay with Staphylococcus aureus [1], against Klebsiella pneumoniae [2], in the assay with Staphylococcus aureus [3], in the assay with Pseudomonas aeruginosa [4] and against Escherichia coli [5] was 8 µg/mL (≈ 17.2 µM) in each case.

Regarding `N=C(N)c1ccc2[nH]c(-c3ccc(OCc4cn(Cc5ccccc5)nn4)cc3)nc2c1`, the MIC against Enterococcus faecium, with Staphylococcus aureus [1], with Klebsiella pneumoniae [2], against Staphylococcus aureus [3], in the assay on Pseudomonas aeruginosa [4] and against Escherichia coli [5] was 16 µg/mL (≈ 37.8 µM) in each case.

As to `Cc1c(C(=O)N/N=C/c2ccc(-c3ccccc3)cc2)nnn1-c1cc(C(F)(F)F)nc2c(C(F)(F)F)cccc12`, the MIC (with Talaromyces marneffei; in assay [6]; against Pseudomonas aeruginosa [7]; with Aspergillus flavus; against Aspergillus fumigatus; in the assay on Klebsiella pneumoniae [8]) was 6.25 µg/mL (≈ 11 µM) throughout. Moreover, the MIC against Escherichia coli [9] and in the assay with Staphylococcus aureus [10] was 6.25 µg/mL (≈ 11 µM) in each case.

With `O=C1CCCC2=C1C(c1ccccc1)c1cc3cc(OCc4cn(-c5ccnc6cc(Cl)ccc56)nn4)ccc3cc1O2` (centres undefined), the MIC in the assay with Staphylococcus aureus [11] and with Bacillus cereus [12] was 16 µg/mL (≈ 27.3 µM) throughout.

For the compound `N=C(N)c1ccc2[nH]c(-c3ccc(OCc4cn(-c5ccc(Cl)cc5)nn4)cc3)nc2c1`, the MIC in the assay on Enterococcus faecium, against Staphylococcus aureus [1], with Klebsiella pneumoniae [2], in the assay with Staphylococcus aureus [3], in the assay on Pseudomonas aeruginosa [4] and against Escherichia coli [5] was 16 µg/mL (≈ 36 µM) each time.

Take `NC[C@H]1O[C@H](O[C@H]2[C@H](O)[C@@H](O[C@H]3O[C@H](CO)[C@@H](O)[C@H](N)[C@H]3O)[C@H](N)C[C@@H]2N)[C@H](O)[C@@H](O)[C@@H]1O` [KANAMYCIN]: the MIC (in the assay on Pseudomonas fluorescens; in assay [13]; against Staphylococcus aureus [14]; in the assay with Escherichia coli [15]; against Micrococcus luteus; against Bacillus cereus [16]) was 2 µg/mL (≈ 4.13 µM) in each case.

With `Cc1c(C(=O)N/N=C/c2ccccc2O)nnn1-c1cc(C(F)(F)F)nc2c(C(F)(F)F)cccc12`, the minimal inhibitory concentration (MIC) (in the assay on Talaromyces marneffei; in [6]; in the assay on Pseudomonas aeruginosa [7]; in the assay with Aspergillus flavus; against Aspergillus fumigatus; in the assay with Klebsiella pneumoniae [8]) was 6.25 µg/mL (≈ 12.3 µM) each time. Moreover, the MIC in the assay on Escherichia coli [9] and with Staphylococcus aureus [10] was 6.25 µg/mL (≈ 12.3 µM) each time.

Take `Cc1ccc(C2C3=C(CC(C)(C)CC3=O)Oc3cc4ccc(OCc5cn(-c6ccnc7cc(Cl)ccc67)nn5)cc4cc32)cc1` (centres undefined): the minimum inhibitory concentration (MIC) against Staphylococcus aureus [11] and in the assay on Bacillus cereus [12] was 16 µg/mL (≈ 25.5 µM) in each case.

Regarding `COc1cccc(/C=N/NC(=O)c2nnn(-c3cc(C(F)(F)F)nc4c(C(F)(F)F)cccc34)c2C)c1O`, the MIC (against Talaromyces marneffei; in [6]; against Pseudomonas aeruginosa [7]; in the assay with Aspergillus flavus; in the assay with Aspergillus fumigatus; in the assay on Klebsiella pneumoniae [8]) was 6.25 µg/mL (≈ 11.6 µM) in each case. Besides, the MIC against Escherichia coli [9] and with Staphylococcus aureus [10] was 6.25 µg/mL (≈ 11.6 µM) each time.

As for `CC1(C)CC(=O)C2=C(C1)Oc1cc3ccc(OCc4cn(-c5ccnc6cc(Cl)ccc56)nn4)cc3cc1C2c1ccc(F)cc1` (centres undefined), the MIC in the assay on Staphylococcus aureus [11] and in the assay on Bacillus cereus [12] was 16 µg/mL (≈ 25.4 µM) in each case.

For the compound `Cc1c(C(=O)N/N=C/c2ccccc2)nnn1-c1cc(C(F)(F)F)nc2c(C(F)(F)F)cccc12`, the MIC (in the assay with Talaromyces marneffei; in [6]; against Pseudomonas aeruginosa [7]; against Aspergillus flavus; against Aspergillus fumigatus; with Klebsiella pneumoniae [8]) was 6.25 µg/mL (≈ 12.7 µM) throughout. Also, the MIC with Escherichia coli [9] and with Staphylococcus aureus [10] was 6.25 µg/mL (≈ 12.7 µM) in each case.

Regarding `c1ccc(Cn2cc(COc3ccc(-c4nc5cc(C6=NCCN6)ccc5[nH]4)cc3)nn2)cc1`, the MIC against Enterococcus faecium, in the assay on Staphylococcus aureus [1], in the assay with Klebsiella pneumoniae [2], against Staphylococcus aureus [3], in the assay with Pseudomonas aeruginosa [4] and against Escherichia coli [5] was 8 µg/mL (≈ 17.8 µM) each time.

Take `CC1(C)CC(=O)C2=C(C1)Oc1cc3ccc(OCc4cn(-c5ccnc6cc(Cl)ccc56)nn4)cc3cc1C2c1ccccc1` (centres undefined): the MIC with Staphylococcus aureus [11] and against Bacillus cereus [12] was 16 µg/mL (≈ 26.1 µM) each time.

On to `COc1ccc(C2C3=C(CC(C)(C)CC3=O)Oc3cc4ccc(OCc5cn(-c6ccnc7cc(Cl)ccc67)nn5)cc4cc32)cc1` (centres undefined), for which the MIC against Staphylococcus aureus [11] and in the assay on Bacillus cereus [12] was 16 µg/mL (≈ 24.9 µM) each time.

`COc1ccc(-n2cc(COc3ccc(-c4nc5cc(C(=N)N)ccc5[nH]4)cc3)nn2)cc1`: the MIC against Enterococcus faecium, in the assay on Staphylococcus aureus [1], with Klebsiella pneumoniae [2], in the assay with Staphylococcus aureus [3], with Pseudomonas aeruginosa [4] and with Escherichia coli [5] was 16 µg/mL (≈ 36.4 µM) in each case.

Consider `CC(C)NC(=N)c1ccc2[nH]c(-c3ccc(OCc4cn(-c5ccc(Cl)cc5)nn4)cc3)nc2c1`, for which the MIC in the assay with Enterococcus faecium, in the assay on Staphylococcus aureus [1], with Klebsiella pneumoniae [2], in the assay with Staphylococcus aureus [3], against Pseudomonas aeruginosa [4] and in the assay on Escherichia coli [5] was 8 µg/mL (≈ 16.5 µM) in each case.

The values are drawn from ChEMBL document CHEMBL4699440, “Comprehensive review on the anti-bacterial activity of 1,2,3-triazole hybrids” (Eur J Med Chem, 2019).
